Measured values reported in patent US12673944B2, “Compounds having inhibitory activity against glucosylceramide synthase or pharmaceutically acceptable salt thereof, processes for preparing the same, and pharmaceutical compositions comprising the same” (YUHAN CORPORATION, priority 2019, dated 2026).

Tests used:
[1] = target: T1, glucosylceramide synthase (GCS) (Homo sapiens, UniProt Q16739); assay: GCS enzyme inhibition assay (A549 cell lysate, NBD C6-ceramide, HPLC fluorescence); format: biochemical; conditions: inhibitory activity against GCS, 37° C., 90 minutes
T1 construct: The obtained supernatant was used; host or cells: A549 cells (lysate supernatant after sonication)
T1 sequence (Q16739 1-394): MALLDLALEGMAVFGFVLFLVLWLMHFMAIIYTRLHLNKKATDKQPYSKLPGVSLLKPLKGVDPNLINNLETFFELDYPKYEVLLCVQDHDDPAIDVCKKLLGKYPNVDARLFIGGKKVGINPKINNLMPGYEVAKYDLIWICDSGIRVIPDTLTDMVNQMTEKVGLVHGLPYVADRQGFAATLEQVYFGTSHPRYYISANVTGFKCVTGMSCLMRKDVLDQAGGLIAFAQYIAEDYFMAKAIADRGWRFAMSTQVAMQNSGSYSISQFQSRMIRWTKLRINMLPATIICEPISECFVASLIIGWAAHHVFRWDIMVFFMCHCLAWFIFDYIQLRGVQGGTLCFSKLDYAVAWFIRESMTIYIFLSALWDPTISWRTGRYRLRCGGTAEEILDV
Method in brief: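 Percent GCS activity was derived from the GlcCer share of Cer plus GlcCer areas, scaled from ibiglustat (0%) to DMSO (100%). Enzyme came from sonicated A549 lysate in 50 mM HEPES pH 7.3; 90 min incubation at 37° C, chloroform/methanol stop and extraction.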

[2] = system: GM1 production in Jurkat cells; assay: cells; format: cell-based; conditions: Homo sapiens, Jurkat, 72 h

Structure (SMILES)	IC50 [1] [nM]	IC50 [2] [nM]
CN1C(=O)COc2ccc(-c3ccc4c(c3)OCC(C)(C)C4NC(=O)O[C@@H]3CN4CCC3CC4)cc21 (stereo partly drawn) [Example 216, (S)-quinuclidin-3-yl (3,3-dimethyl-7-(4-methyl-3-oxo-3,4-dihydro-2H-benzo[b][1,4]oxazin-6-yl)chroman-4-yl)carbamate]	1.51	8.58
CC1(C)COc2cc(-c3ccc(F)c(F)c3F)ccc2C1NC(=O)O[C@@H]1CN2CCC1CC2 (stereo partly drawn) [Example 217, (S)-quinuclidin-3-yl (3,3-dimethyl-7-(2,3,4-trifluorophenyl)chroman-4-yl)carbamate]	0.55	7.35
CC1(C)COc2cc(-c3ccc(OC(F)F)cc3)ccc2C1NC(=O)O[C@@H]1CN2CCC1CC2 (stereo partly drawn) [Example 218, (S)-quinuclidin-3-yl (7-(4-(difluoromethoxy)phenyl)-3,3-dimethylchroman-4-yl)carbamate]	0.4	2.69
CC1(C)COc2cc(-c3cccc4ncccc34)ccc2C1NC(=O)O[C@@H]1CN2CCC1CC2 (stereo partly drawn) [Example 219, (S)-quinuclidin-3-yl (3,3-dimethyl-7-(quinolin-5-yl)chroman-4-yl)carbamate]	2.26	7.58
CC1(C)COc2cc(-c3ccc4nonc4c3)ccc2C1NC(=O)O[C@@H]1CN2CCC1CC2 (stereo partly drawn) [Example 220, (S)-quinuclidin-3-yl (7-(benzo[c][1,2,5]oxadiazol-5-yl)-3,3-dimethylchroman-4-yl)carbamate]	0.8	2.42
Cc1cncc(-c2ccc3c(c2)OCC(C)(C)C3NC(=O)O[C@@H]2CN3CCC2CC3)c1 (stereo partly drawn) [Example 221, (S)-quinuclidin-3-yl (3,3-dimethyl-7-(5-methylpyridin-3-yl)chroman-4-yl)carbamate]	0.74	2.8
CC1(C)COc2cc(-c3cccnc3F)ccc2C1NC(=O)O[C@@H]1CN2CCC1CC2 (stereo partly drawn) [Example 222, (S)-quinuclidin-3-yl (7-(2-fluoropyridin-3-yl)-3,3-dimethylchroman-4-yl)carbamate]	0.79	6.59
Cc1ccc(-c2ccc3c(c2)OCC(C)(C)C3NC(=O)O[C@@H]2CN3CCC2CC3)c(Cl)c1 (stereo partly drawn) [Example 223, (S)-quinuclidin-3-yl (7-(2-chloro-4-methylphenyl)-3,3-dimethylchroman-4-yl)carbamate]	1.58	1.6
Cc1ccc(Cl)c(-c2ccc3c(c2)OCC(C)(C)C3NC(=O)O[C@@H]2CN3CCC2CC3)c1 (stereo partly drawn) [Example 224, (S)-quinuclidin-3-yl (7-(2-chloro-5-methylphenyl)-3,3-dimethylchroman-4-yl)carbamate]	0.62	0.6
Cc1ccc(-c2ccc3c(c2)OCC(C)(C)C3NC(=O)O[C@@H]2CN3CCC2CC3)c(F)c1 (stereo partly drawn) [Example 225, (S)-quinuclidin-3-yl (7-(2-fluoro-4-methylphenyl)-3,3-dimethylchroman-4-yl)carbamate]	0.45	1.7
Cc1ccc(-c2ccc3c(c2)OCC(C)(C)C3NC(=O)O[C@@H]2CN3CCC2CC3)cc1Cl (stereo partly drawn) [Example 226, (S)-quinuclidin-3-yl (7-(3-chloro-4-methylphenyl)-3,3-dimethylchroman-4-yl)carbamate]	0.71	1.3
Cc1cc(F)ccc1-c1ccc2c(c1)OCC(C)(C)C2NC(=O)O[C@@H]1CN2CCC1CC2 (stereo partly drawn) [Example 227, (S)-quinuclidin-3-yl (7-(4-fluoro-2-methylphenyl)-3,3-dimethylchroman-4-yl)carbamate]	0.56	4.5
Cc1ccc(-c2ccc3c(c2)OCC(C)(C)C3NC(=O)O[C@@H]2CN3CCC2CC3)cc1F (stereo partly drawn) [Example 228, (S)-quinuclidin-3-yl (7-(3-fluoro-4-methylphenyl)-3,3-dimethylchroman-4-yl)carbamate]	0.55	1.3
Cc1cc(-c2ccc3c(c2)OCC(C)(C)C3NC(=O)O[C@@H]2CN3CCC2CC3)ccc1F (stereo partly drawn) [Example 229, (S)-quinuclidin-3-yl (7-(4-fluoro-3-methylphenyl)-3,3-dimethylchroman-4-yl)carbamate]	0.71	2.1
CC1(C)COc2cc(-c3ccc(Cl)cc3Cl)ccc2C1NC(=O)O[C@@H]1CN2CCC1CC2 (stereo partly drawn) [Example 230, (S)-quinuclidin-3-yl (7-(2,4-dichlorophenyl)-3,3-dimethylchroman-4-yl)carbamate]	0.86	0.8
CC1(C)COc2cc(-c3ccc(F)cc3Cl)ccc2C1NC(=O)O[C@@H]1CN2CCC1CC2 (stereo partly drawn) [Example 231, (S)-quinuclidin-3-yl (7-(2-chloro-4-fluorophenyl)-3,3-dimethylchroman-4-yl)carbamate]	0.62	1.5

Structure (SMILES)	IC50 [1] [nM]	IC50 [2] [nM]
CC1(C)COc2cc(-c3cc(F)ccc3Cl)ccc2C1NC(=O)O[C@@H]1CN2CCC1CC2 (stereo partly drawn) [Example 232, (S)-quinuclidin-3-yl (7-(2-chloro-5-fluorophenyl)-3,3-dimethylchroman-4-yl)carbamate]	0.41	0.3
CC1(C)COc2cc(-c3ccc(F)cc3F)ccc2C1NC(=O)O[C@@H]1CN2CCC1CC2 (stereo partly drawn) [Example 233, (S)-quinuclidin-3-yl (7-(2,4-difluorophenyl)-3,3-dimethylchroman-4-yl)carbamate]	0.49	3
CC1(C)COc2cc(-c3cc(F)ccc3F)ccc2C1NC(=O)O[C@@H]1CN2CCC1CC2 (stereo partly drawn) [Example 234, (S)-quinuclidin-3-yl (7-(2,5-difluorophenyl)-3,3-dimethylchroman-4-yl)carbamate]	0.4	1.1
CC1(C)COc2cc(-c3cccc(Cl)c3Cl)ccc2C1NC(=O)O[C@@H]1CN2CCC1CC2 (stereo partly drawn) [Example 235, (S)-quinuclidin-3-yl (7-(2,3-dichlorophenyl)-3,3-dimethylchroman-4-yl)carbamate]	0.75	7.1
CC1(C)COc2cc(-c3ccc(F)c(Cl)c3)ccc2C1NC(=O)O[C@@H]1CN2CCC1CC2 (stereo partly drawn) [Example 236, (S)-quinuclidin-3-yl (7-(3-chloro-4-fluorophenyl)-3,3-dimethylchroman-4-yl)carbamate]	0.75	3.6
CC1(C)COc2cc(-c3cccc(F)c3Cl)ccc2C1NC(=O)O[C@@H]1CN2CCC1CC2 (stereo partly drawn) [Example 237, (S)-quinuclidin-3-yl (7-(2-chloro-3-fluorophenyl)-3,3-dimethylchroman-4-yl)carbamate]	0.63	5.1
CC1(C)COc2cc(-c3ccc(F)c(F)c3)ccc2C1NC(=O)O[C@@H]1CN2CCC1CC2 (stereo partly drawn) [Example 238, (S)-quinuclidin-3-yl (7-(3,4-difluorophenyl)-3,3-dimethylchroman-4-yl)carbamate]	0.47	5.9
CC1(C)COc2cc(-c3cccc(F)c3F)ccc2C1NC(=O)O[C@@H]1CN2CCC1CC2 (stereo partly drawn) [Example 239, (S)-quinuclidin-3-yl (7-(2,3-difluorophenyl)-3,3-dimethylchroman-4-yl)carbamate]	0.47	4.8
CC1(C)COc2cc(-c3cc(F)cc(F)c3)ccc2C1NC(=O)O[C@@H]1CN2CCC1CC2 (stereo partly drawn) [Example 240, (S)-quinuclidin-3-yl (7-(3,5-difluorophenyl)-3,3-dimethylchroman-4-yl)carbamate]	0.92	5
COc1ccc(-c2ccc3c(c2)OCC(C)(C)C3NC(=O)O[C@@H]2CN3CCC2CC3)cn1 (stereo partly drawn) [Example 241, (S)-quinuclidin-3-yl (7-(6-methoxypyridin-3-yl)-3,3-dimethylchroman-4-yl)carbamate]	0.81	24.1
CC1(C)COc2cc(-c3ccc(-c4ccccc4)cc3)ccc2C1NC(=O)O[C@@H]1CN2CCC1CC2 (stereo partly drawn) [Example 242, (S)-quinuclidin-3-yl (7-([1,1′-biphenyl]-4-yl)-3,3-dimethylchroman-4-yl)carbamate]	0.53	3.8
CC1(C)COc2cc(-c3cncs3)ccc2C1NC(=O)O[C@@H]1CN2CCC1CC2 (stereo partly drawn) [Example 243, (S)-quinuclidin-3-yl (3,3-dimethyl-7-(thiazol-5-yl)chroman-4-yl)carbamate]	1.9	24.1
C=Cc1cccc(-c2ccc3c(c2)OCC(C)(C)C3NC(=O)O[C@@H]2CN3CCC2CC3)c1 (stereo partly drawn) [Example 244, (S)-quinuclidin-3-yl (3,3-dimethyl-7-(3-vinylphenyl)chroman-4-yl)carbamate]	0.42	0.6
COc1ncccc1-c1ccc2c(c1)OCC(C)(C)C2NC(=O)O[C@@H]1CN2CCC1CC2 (stereo partly drawn) [Example 245, (S)-quinuclidin-3-yl (7-(2-methoxypyridin-3-yl)-3,3-dimethylchroman-4-yl)carbamate]	0.95	4.7
COc1cccc(-c2ccc3c(c2)OCC(C)(C)C3NC(=O)O[C@@H]2CN3CCC2CC3)n1 (stereo partly drawn) [Example 246, (S)-quinuclidin-3-yl (7-(6-methoxypyridin-2-yl)-3,3-dimethylchroman-4-yl)carbamate]	0.75	1.3
CC1(C)COc2cc(-c3ccc(C#N)cc3)ccc2C1NC(=O)O[C@@H]1CN2CCC1CC2 (stereo partly drawn) [Example 247, (S)-quinuclidin-3-yl (7-(4-cyanophenyl)-3,3-dimethylchroman-4-yl)carbamate]	0.58	10.7
